Test results from patent publication US11793849B2, “Method of Chinese herbal medicine extract used for treating multiple diseases caused by drug resistant bacteria infection” (priority 2016, dated 2023).
Read-outs that look alike come from different tables or passages of the source.

System: MDRAB
Experiment: Checkerboard assay (combined-use MIC, FIC)
Type: cell-based, Acinetobacter baumannii
Settings: for FIC, all strains / MIC50 of the antibiotic after combined use / MIC90 of the antibiotic after combined use / reduction of the antibiotic's MIC50 vs single use / reduction of the antibiotic's MIC90 vs single use / share of strains with FIC ≤ 0.5: 20 MDRABs; for MIC: Acinetobacter baumannii, EA=60% ethanol extract, read-out: single-use MIC
Method: Test methods of the sensibilization effects of the test product to similar antibiotics: it is operated by referring to a checkerboard assay recommended by NCCLS.
The checkerboard assay is performed in a 96-pore sterile culture plate.
Calculation of a Fractional Inhibitory Concentration (FIC): FIC=S20b combined-use MIC/S20b single-use MIC+antibiotic combined-use MIC/antibiotic single-use MIC. By calculating the FIC, the combined antibacterial interaction between the EA and the antibiotic is evaluated, with synergistic effect for FIC≤0.5, additive effect for 0.5<FIC≤1, indifferent effect for 1<FIC≤2 and antagonistic effect for FIC>2. According to a sterile growth pore, the optimum concentration ratio between the EA and the antibiotic is founded out. At last, the effect of the EA to strengthen the efficacy of the antibiotic is evaluated.

[1] = antibiotic with 60% ethanol extract
[2] = antibiotic with 95% ethanol extract
[3] = antibiotic with EA (10% ethanol extract)
[4] = antibiotic with EA (water extract)

CC(C)(O/N=C(\C(=O)N[C@@H]1C(=O)N2C(C(=O)[O-])=C(C[n+]3ccccc3)CS[C@H]12)c1csc(N)n1)C(=O)O [CAZ, Ceftazidime]
32 µg/mL: combined-use MIC (strain A4, EA (water extract) with CAZ) | combined-use MIC (strain A5, EA (10% ethanol extract) with CAZ) | combined-use MIC (strain A5, EA (60% ethanol extract) + CAZ combined) | combined-use MIC (strain A5, EA (P. clypearia 95% ethanol extract) combined with CAZ) | combined-use MIC (strain A5, EA (water extract) with CAZ) | combined-use MIC (strain A17, EA (water extract) with CAZ)
30%: share of strains with FIC ≤ 0.5 [3]
50%: reduction of the antibiotic's MIC90 vs single use [1] | reduction of the antibiotic's MIC90 vs single use [2] | reduction of the antibiotic's MIC90 vs single use [3] | reduction of the antibiotic's MIC90 vs single use [4]
10%: share of strains with FIC ≤ 0.5 [1] | share of strains with FIC ≤ 0.5 [2]
256 µg/mL: MIC90 of the antibiotic after combined use [1] | MIC90 of the antibiotic after combined use [2] | MIC90 of the antibiotic after combined use [3] | MIC90 of the antibiotic after combined use [4] | MIC (strain A4) | MIC (strain A13) | MIC (strain A15) | MIC (strain A17) | MIC (strain A19) | combined-use MIC (strain A2, EA (10% ethanol extract) with CAZ) | combined-use MIC (strain A2, EA (water extract) with CAZ) | combined-use MIC (strain A3, EA (10% ethanol extract) with CAZ) | combined-use MIC (strain A3, EA (water extract) with CAZ) | combined-use MIC (strain A7, EA (60% ethanol extract) + CAZ combined) | combined-use MIC (strain A7, EA (P. clypearia 95% ethanol extract) combined with CAZ) | combined-use MIC (strain A8, EA (10% ethanol extract) with CAZ) | combined-use MIC (strain A8, EA (60% ethanol extract) + CAZ combined) | combined-use MIC (strain A8, EA (P. clypearia 95% ethanol extract) combined with CAZ) | combined-use MIC (strain A8, EA (water extract) with CAZ) | combined-use MIC (strain A9, EA (P. clypearia 95% ethanol extract) combined with CAZ) | combined-use MIC (strain A10, EA (10% ethanol extract) with CAZ) | combined-use MIC (strain A10, EA (P. clypearia 95% ethanol extract) combined with CAZ) | combined-use MIC (strain A10, EA (water extract) with CAZ) | combined-use MIC (strain A11, EA (water extract) with CAZ) | combined-use MIC (strain A14, EA (60% ethanol extract) + CAZ combined) | combined-use MIC (strain A14, EA (P. clypearia 95% ethanol extract) combined with CAZ) | combined-use MIC (strain A16, EA (P. clypearia 95% ethanol extract) combined with CAZ) | combined-use MIC (strain A18, EA (10% ethanol extract) with CAZ) | combined-use MIC (strain A18, EA (water extract) with CAZ) | combined-use MIC (strain A20, EA (60% ethanol extract) + CAZ combined) | combined-use MIC (strain A20, EA (P. clypearia 95% ethanol extract) combined with CAZ)
512 µg/mL: MIC (strain A2) | MIC (strain A3) | MIC (strain A8) | MIC (strain A9) | MIC (strain A10) | MIC (strain A11) | MIC (strain A12) | MIC (strain A14) | MIC (strain A16) | MIC (strain A18) | MIC (strain A20) | combined-use MIC (strain A6, EA (10% ethanol extract) with CAZ) | combined-use MIC (strain A6, EA (60% ethanol extract) + CAZ combined) | combined-use MIC (strain A6, EA (P. clypearia 95% ethanol extract) combined with CAZ) | combined-use MIC (strain A6, EA (water extract) with CAZ) | combined-use MIC (strain A7, EA (10% ethanol extract) with CAZ) | combined-use MIC (strain A7, EA (water extract) with CAZ)
75%: reduction of the antibiotic's MIC50 vs single use [1] | reduction of the antibiotic's MIC50 vs single use [2] | reduction of the antibiotic's MIC50 vs single use [3] | reduction of the antibiotic's MIC50 vs single use [4]
64 µg/mL: MIC (strain A5) | combined-use MIC (strain A1, EA (10% ethanol extract) with CAZ) | combined-use MIC (strain A1, EA (60% ethanol extract) + CAZ combined) | combined-use MIC (strain A1, EA (P. clypearia 95% ethanol extract) combined with CAZ) | combined-use MIC (strain A1, EA (water extract) with CAZ) | combined-use MIC (strain A4, EA (10% ethanol extract) with CAZ) | combined-use MIC (strain A4, EA (60% ethanol extract) + CAZ combined) | combined-use MIC (strain A4, EA (P. clypearia 95% ethanol extract) combined with CAZ) | combined-use MIC (strain A9, EA (60% ethanol extract) + CAZ combined) | combined-use MIC (strain A9, EA (water extract) with CAZ) | combined-use MIC (strain A11, EA (60% ethanol extract) + CAZ combined) | combined-use MIC (strain A11, EA (P. clypearia 95% ethanol extract) combined with CAZ) | combined-use MIC (strain A14, EA (10% ethanol extract) with CAZ) | combined-use MIC (strain A14, EA (water extract) with CAZ) | combined-use MIC (strain A16, EA (water extract) with CAZ) | combined-use MIC (strain A17, EA (10% ethanol extract) with CAZ) | combined-use MIC (strain A19, EA (10% ethanol extract) with CAZ) | combined-use MIC (strain A20, EA (water extract) with CAZ)
≤ 2: FIC, all strains [1] | FIC, all strains [2] | FIC, all strains [3] | FIC, all strains [4]
1020 µg/mL: MIC (strain A6) | MIC (strain A7)
20%: share of strains with FIC ≤ 0.5 [4]
128 µg/mL: MIC50 of the antibiotic after combined use [1] | MIC50 of the antibiotic after combined use [2] | MIC50 of the antibiotic after combined use [3] | MIC50 of the antibiotic after combined use [4] | MIC (strain A1) | combined-use MIC (strain A2, EA (60% ethanol extract) + CAZ combined) | combined-use MIC (strain A2, EA (P. clypearia 95% ethanol extract) combined with CAZ) | combined-use MIC (strain A3, EA (60% ethanol extract) + CAZ combined) | combined-use MIC (strain A3, EA (P. clypearia 95% ethanol extract) combined with CAZ) | combined-use MIC (strain A9, EA (10% ethanol extract) with CAZ) | combined-use MIC (strain A10, EA (60% ethanol extract) + CAZ combined) | combined-use MIC (strain A11, EA (10% ethanol extract) with CAZ) | combined-use MIC (strain A12, EA (10% ethanol extract) with CAZ) | combined-use MIC (strain A12, EA (60% ethanol extract) + CAZ combined) | combined-use MIC (strain A12, EA (P. clypearia 95% ethanol extract) combined with CAZ) | combined-use MIC (strain A12, EA (water extract) with CAZ) | combined-use MIC (strain A13, EA (10% ethanol extract) with CAZ) | combined-use MIC (strain A13, EA (60% ethanol extract) + CAZ combined) | combined-use MIC (strain A13, EA (P. clypearia 95% ethanol extract) combined with CAZ) | combined-use MIC (strain A13, EA (water extract) with CAZ) | combined-use MIC (strain A15, EA (10% ethanol extract) with CAZ) | combined-use MIC (strain A15, EA (60% ethanol extract) + CAZ combined) | combined-use MIC (strain A15, EA (P. clypearia 95% ethanol extract) combined with CAZ) | combined-use MIC (strain A15, EA (water extract) with CAZ) | combined-use MIC (strain A16, EA (10% ethanol extract) with CAZ) | combined-use MIC (strain A16, EA (60% ethanol extract) + CAZ combined) | combined-use MIC (strain A17, EA (60% ethanol extract) + CAZ combined) | combined-use MIC (strain A17, EA (P. clypearia 95% ethanol extract) combined with CAZ) | combined-use MIC (strain A18, EA (60% ethanol extract) + CAZ combined) | combined-use MIC (strain A18, EA (P. clypearia 95% ethanol extract) combined with CAZ) | combined-use MIC (strain A19, EA (60% ethanol extract) + CAZ combined) | combined-use MIC (strain A19, EA (P. clypearia 95% ethanol extract) combined with CAZ) | combined-use MIC (strain A19, EA (water extract) with CAZ) | combined-use MIC (strain A20, EA (10% ethanol extract) with CAZ)
